Values joined by “and” are separate entries in the source; they are usually repeats but may differ in a detail not shown here. Equal entries are not always repeated.
What was measured:
[1] = system: humanized PXR-CAR-CYP3A4/3A7 mice, liver; experiment: Liver enzymatic TG measurement (HFD study); assay type: in vivo, mouse
Description: The liver tissue (10 mg) was homogenized using a pre-cooled steel bead in 225 μL of methanol in TissueLyser II (30 Hz, 2 × 30 s) (Qiagen, Hilden, Germany). This was followed by the addition of 750 μL of ice-cold methyl tert-butyl ether. Samples were vortexed and incubated for 1 h on a rotating wheel. Next, 188 μL of LC/MS-grade water was added and, after vortexing, the mixture underwent a short incubation and centrifugation (14,000 × g, 4 °C, 3 min). The upper organic phase containing lipids was collected and 300 μL was transferred to a vial containing 40 μL of 10% Triton X-100 in methanol, followed by evaporation on a heating block with shaking function (300 rpm, 45 °C). LC/MS-grade water (100 μL) was added to the evaporated sample and the tube was vortexed (1000 rpm, 35 °C). The samples were measured using a TG assay (Beckman Coulter, Brea, CA, USA) and a glycerol assay (Randox laboratories, Crumlin, UK) on an AU480 biochemistry analyzer (Beckman Coulter, Brea, CA, USA). The glycerol value was subtracted from the TG value. Livers from seven (n = 7) vehicle-treated controls and ten (n = 10) MI-883-treated animals were used.

[2] = biological target: FXR (Homo sapiens, UniProt Q96RI1); experiment: Luciferase reporter gene assay FXR, HepG2
FXR, sequence (Q96RI1 whole entry): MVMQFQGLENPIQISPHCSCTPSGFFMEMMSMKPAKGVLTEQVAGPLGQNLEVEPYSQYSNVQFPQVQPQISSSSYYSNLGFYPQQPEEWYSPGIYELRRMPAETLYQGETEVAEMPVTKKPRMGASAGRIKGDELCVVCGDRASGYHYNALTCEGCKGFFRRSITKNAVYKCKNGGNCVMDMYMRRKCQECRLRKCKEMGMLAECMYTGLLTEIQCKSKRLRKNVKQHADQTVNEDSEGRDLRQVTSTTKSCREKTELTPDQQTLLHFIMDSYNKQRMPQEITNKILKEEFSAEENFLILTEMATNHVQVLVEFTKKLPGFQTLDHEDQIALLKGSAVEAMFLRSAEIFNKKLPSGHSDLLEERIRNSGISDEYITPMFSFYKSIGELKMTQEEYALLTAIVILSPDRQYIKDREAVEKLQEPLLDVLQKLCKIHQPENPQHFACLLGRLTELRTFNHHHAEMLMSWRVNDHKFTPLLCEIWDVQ
Description: Gal4-LBD constructs of tested nuclear receptors have been used together with pGL4.31[luc2P/GAL4UAS/Hygro] luciferase reporter construct and pRL-TK Renilla expression vector (both from Promega, Hercules, USA) in HepG2 cells transfected with Lipofectamine 2000 or 3000 reagents. For GRα and FXR receptors, full-length expression vectors have been used with pGRE-luc or pFXRE-luc luciferase constructs. For the aryl hydrocarbon receptor (AhR), p1A1-luc construct was used with only pRL-TK vector for transfection normalization. A dual reporter assay (Promega, Hercules, USA) was used to analyze both firefly and Renilla luciferase activities.
Gal4-LBD constructs of tested nuclear receptors have been used together with pGL5-luc luciferase reporter construct and pRL-TK Renilla expression vector in HepG2 cells transfected with Lipofectamine 2000 or 3000 reagents. For GRα and FXR receptors, full-length expression vectors have been used with pGRE-luc or pFXRE-luc luciferase constructs. For the aryl hydrocarbon receptor (AhR), p1A1-luc construct was used with only pRL-TK vector for transfection normalization. […] Bars represent means±S.D. (n=3).

[3] = biological target: ERα (Homo sapiens, UniProt P03372); experiment: Luciferase reporter gene assay ERα, HepG2; assay type: cell-based
ERα, sequence (P03372 311-547 limits assumed, species assumed): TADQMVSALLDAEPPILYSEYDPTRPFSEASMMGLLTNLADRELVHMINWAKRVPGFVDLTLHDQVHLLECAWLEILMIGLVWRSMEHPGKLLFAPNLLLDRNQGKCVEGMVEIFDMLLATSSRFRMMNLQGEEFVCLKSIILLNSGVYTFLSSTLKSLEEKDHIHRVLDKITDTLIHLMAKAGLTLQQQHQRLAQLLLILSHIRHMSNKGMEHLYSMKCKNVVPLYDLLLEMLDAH
Excerpt: (see Supplementary Chapter 7).
Thank you for the insightful question and comment. We have corrected the sentence to read:
Thank you for the idea. Yes, we conducted luciferase reporter assays in antagonistic "mode" for several nuclear receptors using their prototype ligands in the revised manuscript (Figure R7).
This information is included in the Supplementary Information.
Treatment with 5 and 10 µM
(1 picture or pasted object on this page, not shown here) […]
nM dexamethasone, 10 µM GW3965 (LXRα agonist), and 10 µM estradiol. Data are presented as a […]

NC(=O)c1cc(Cn2cc(-c3c(-c4ccc(Cl)cc4)nc4cc(F)ccn34)nn2)ccc1Cl [MI-883, 2-chloro-5-((4-(2-(4-chlorophenyl)-7-fluoroimidazo[1,2-a]pyridin-3-yl)-1H-1,2,3-triazol-1-yl)methyl)benzamide]
TG accumulation in male livers, enzymatic assay [1]: no significant impact | NRs assays: FXR (relative to ctrl, replicates) [2]: 0.85 and 0.88 and 1.01 | NRs assays: ERalpha (relative to ctrl, replicates) [3]: 0.77 and 1.06 and 0.79 | inhibition of estrogen receptor alpha (ERα), antagonistic mode ([3]; 10 μM MI-883): weak inhibitor

Reference: article PMC11802874, “The hypolipidemic effect of MI-883, the combined CAR agonist/ PXR antagonist, in diet-induced hypercholesterolemia model” (Nature Communications, 2025)
